The RepoRT retention time repository (doi:10.1016/j.chroma.2015.03.063)

Test: Agilent ZORBAX Eclipse Plus C18, 100 × 2.1 mm, 1.8 µm, 25 °C, 0.3 mL/min, estimated dead time 0.73 min; A: water + 0.1% acetic acid; B: methanol; gradient (min/%B) 0/5 6/20 13/35 18/50 24/65 30/90 40/90
Settings: stereoisomer not certain

SMILES | LC retention time
NC(Cc1c[nH]c2ccccc12)C(=O)O (stereo not drawn) | 9.7 min
C[N+](C)(C)CCO | 2.08 min
NC(Cc1ccccc1)C(=O)O (stereo not drawn) | 7.22 min
C[N+](C)(C)CC(=O)[O-] | 2.8 min
O=Cc1ccc(CO)o1 | 7.09 min
C=C1CCCC2(C)CC3(O)OC(=O)C(C)=C3CC12 (stereo not drawn) | 30.1 min
C[n+]1cccc(C(=O)[O-])c1 | 2.21 min
CSCCC(N)C(=O)O (stereo not drawn) | 3.21 min
NCCCCC(N)C(=O)O (stereo not drawn) | 1.88 min

The remaining lines, values ahead:

LC retention time | SMILES
18.2 min | O=c1cc(-c2ccc(O)cc2)oc2cc(OC3OC(CO)C(O)C(O)C3O)cc(O)c12 (stereo not drawn)
2.4 min | OCC1OC(OC2(CO)OC(CO)C(O)C2O)C(O)C(O)C1O (stereo not drawn)
4.31 min | NC(Cc1ccc(O)cc1)C(=O)O (stereo not drawn)
17.6 min | COc1ccc(-c2coc3cc(OC4OC(CO)C(O)C(O)C4O)ccc3c2=O)cc1O (stereo not drawn)
